Laboratory results as given in patent US20140249024A1, “Pesticidal Methods Using Substituted 3-pyridyl Thiazole Compounds and Derivatives for Combating Animal Pests II” (BASF SE, priority 2011, published 2014).

Columns and labels:
Assay type in all cases: in vivo
[1] = system: Cowpea Aphid (Aphis craccivora); experiment: Cowpea aphid test on sprayed potted cowpea plants; conditions: spray on cowpea plants, population reduction assessed after 24, 72 and 120 hours, read-out: mortality in comparison with untreated controls
Procedure: The active compound was dissolved at the desired concentration in a mixture of 1:1 (vol:vol) distilled water:acetone. The test solution was prepared at the day of use.
Potted cowpea plants colonized with approximately 100-150 aphids of various stages were sprayed after the pest population had been recorded. Population reduction was assessed after 24, 72, and 120 hours.

[2] = system: Green Peach Aphid (Myzus persicae); experiment: Green peach aphid mortality on sprayed bell pepper plants; conditions: 120 h, spray on infested bell pepper plants, determined after 5 days, read-out: mortality in comparison with untreated controls
Excerpt: The active compounds were formulated in cyclohexanone as a 10,000 ppm solution supplied in tubes. The tubes were inserted into an automated electrostatic sprayer equipped with an atomizing nozzle and they served as stock solutions for which lower dilutions were made in 50% acetone:50% water (v/v). A nonionic surfactant (Kinetic®) was included in the solution at a volume of 0.01% (v/v).
Bell pepper plants at the first true-leaf stage were infested prior to treatment by placing heavily infested leaves from the main colony on top of the treatment plants. Aphids were allowed to transfer overnight to accomplish an infestation of 30-50 aphids per plant and the host leaves were removed. The infested plants were then sprayed by an automated electrostatic plant sprayer equipped with an atomizing spray nozzle. The plants were dried in the sprayer fume hood, removed, and then maintained in a growth room under fluorescent lighting in a 24-hr photoperiod at about 25° C. and about 20-40% relative humidity. Aphid mortality on the treated plants, relative to mortality on untreated control plants, was determined after 5 days.

[3] = system: Cotton Aphid (Aphis gossypii); experiment: Cotton aphid mortality on dipped cotton cotyledons; conditions: 120 h, mortality counts after 5 days, read-out: mortality in comparison with untreated controls
Excerpt: The active compounds were formulated in 50:50 (vol:vol) acetone: water and 100 ppm Kinetica™ surfactant.
Cotton plants at the cotyledon stage (one plant per pot) weare infested by placing a heavily infested leaf from the main colony on top of each cotyledon. The aphids were allowed to transfer to the host plant overnight, and the leaf used to transfer the aphids was removed. The cotyledons were dipped in the test solution and allowed to dry. After 5 days, mortality counts were made.

[4] = system: Silverleaf Whitefly (bemisia argentifolii); experiment: Silverleaf whitefly adult mortality on sprayed cotton plants; conditions: 72 h, spray on cotton plants, whitefly adults, assessed 3 days after treatment, read-out: mortality in comparison with untreated controls
Excerpt: The active compounds were formulated in cyclohexanone as a 10,000 ppm solution supplied in tubes. The tubes were inserted into an automated electrostatic sprayer equipped with an atomizing nozzle and they serve as stock solutions for which lower dilutions are made in 50% acetone:50% water (v/v). A nonionic surfactant (Kinetic®) was included in the solution at a volume of 0.01% (v/v).
Cotton plants at the cotyledon stage (one plant per pot) were sprayed by an automated electrostatic plant sprayer equipped with an atomizing spray nozzle. The plants were dried in the sprayer fume hood and then removed from the sprayer. Each pot was placed into a plastic cup and about 10 to 12 whitefly adults (approximately 3-5 days old) were introduced. The insects were collected using an aspirator and a nontoxic Tygon® tubing connected to a barrier pipette tip. The tip, containing the collected insects, were then gently inserted into the soil containing the treated plant, allowing insects to crawl out of the tip to reach the foliage for feeding. Cups were covered with a reusable screened lid. Test plants were maintained in a growth room at about 25° C. and about 20-40% relative humidity for 3 days, avoiding direct exposure to fluorescent light (24 hour photoperiod) to prevent trapping of heat inside the cup. Mortality was assessed 3 days after treatment, compared to untreated control plants.

Measured: mortality at 500 ppm

FC(F)(F)c1nc(-c2cccnc2)sc1-c1ccn(-c2ncccn2)n1 [C.2, 2-[3-(2-Pyridin-3-yl-4-trifluoromethyl-thiazol-5-yl)-pyrazol-1-yl]-pyrimidine]
≥ 75%: [1] | [2] | [3]

Clc1nc(-c2cccnc2)sc1-c1ccccn1 [C.4, 4-chloro-5-(2-pyridyl)-2-(3-pyridyl)thiazole]
≥ 75%: [1] | [4] | [2]
